{"source": "ChEMBL document CHEMBL1201862", "about": "“PubChem BioAssay data set” (2004)", "key": {"[1]": {"experiment": "luciferase reporter signal suppression in cells – H4 neuroglioma cells, luminescence, dose response (AID 1990)", "type": "functional, cell-based"}, "[2]": {"experiment": "viability loss in HeLa cells – cytotoxicity control for MgcRacGAP inhibitor project, dose response (AID 624300)", "type": "functional"}, "[3]": {"experiment": "alpha-synuclein stem-loop luciferase translation blockers – H4 neuroglioma cells, luminescence, confirmation (AID 1988)", "type": "functional, cell-based"}, "[4]": {"experiment": "Luminescence Cell-Based Dose Response HTS to Identify Inhibitors of 5'UTR Stem-Loop Driven Prion Protein mRNA Translation in H4 Neuroglioblastoma Cells. [Related pubchem assays: 1827 (Project Summary), 1813 (Primary HTS)]", "type": "functional"}, "H9c2": {"test_system": "H9c2", "experiment": "cells", "type": "functional, cell-based", "conditions": "Rattus norvegicus, H9c2, Myocardium"}, "[5]": {"target": "T1, Zinc finger protein mex-5 (Caenorhabditis elegans, UniProt Q9XUB2)", "T1 sequence (Q9XUB2 whole entry)": "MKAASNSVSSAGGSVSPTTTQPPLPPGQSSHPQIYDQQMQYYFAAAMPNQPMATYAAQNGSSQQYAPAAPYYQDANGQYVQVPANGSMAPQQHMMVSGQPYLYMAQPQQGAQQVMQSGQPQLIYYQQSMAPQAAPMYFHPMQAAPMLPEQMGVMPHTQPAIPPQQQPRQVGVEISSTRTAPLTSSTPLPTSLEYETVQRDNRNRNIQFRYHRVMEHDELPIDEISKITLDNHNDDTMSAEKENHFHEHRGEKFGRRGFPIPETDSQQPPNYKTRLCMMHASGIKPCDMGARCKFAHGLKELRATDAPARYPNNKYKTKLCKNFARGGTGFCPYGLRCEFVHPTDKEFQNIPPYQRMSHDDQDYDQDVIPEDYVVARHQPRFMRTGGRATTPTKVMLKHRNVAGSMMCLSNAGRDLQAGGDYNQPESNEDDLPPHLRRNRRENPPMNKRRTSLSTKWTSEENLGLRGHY", "experiment": "potency of MEX-5 RNA-binding blockers – biochemical, C. elegans, fluorescence polarization, dose response (AID 1960)"}, "[6]": {"target": "T2, RNA-binding protein pos-1 (Caenorhabditis elegans, UniProt G5EF15)", "T2 sequence (G5EF15 whole entry)": "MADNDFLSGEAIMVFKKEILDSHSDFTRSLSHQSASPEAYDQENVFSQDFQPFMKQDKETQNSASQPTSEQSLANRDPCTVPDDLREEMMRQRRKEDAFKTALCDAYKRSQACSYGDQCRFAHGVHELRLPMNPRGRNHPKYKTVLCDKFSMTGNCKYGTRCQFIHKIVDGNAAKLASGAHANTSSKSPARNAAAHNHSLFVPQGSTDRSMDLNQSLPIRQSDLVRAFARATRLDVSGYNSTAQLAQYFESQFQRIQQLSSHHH", "experiment": "disruptors of C. elegans POS-1 RNA interaction – biochemical, fluorescence polarization, dose response (AID 1964);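 also: purified POS-1 fused to maltose binding protein made in E. coli; potency of compounds blocking POS-1 binding to fluorescent RNA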"}, "Leucine aminopeptidase": {"target": "T3, Leucine aminopeptidase (Plasmodium falciparum 3D7, UniProt Q8IL11)", "T3 sequence (Q8IL11 whole entry)": "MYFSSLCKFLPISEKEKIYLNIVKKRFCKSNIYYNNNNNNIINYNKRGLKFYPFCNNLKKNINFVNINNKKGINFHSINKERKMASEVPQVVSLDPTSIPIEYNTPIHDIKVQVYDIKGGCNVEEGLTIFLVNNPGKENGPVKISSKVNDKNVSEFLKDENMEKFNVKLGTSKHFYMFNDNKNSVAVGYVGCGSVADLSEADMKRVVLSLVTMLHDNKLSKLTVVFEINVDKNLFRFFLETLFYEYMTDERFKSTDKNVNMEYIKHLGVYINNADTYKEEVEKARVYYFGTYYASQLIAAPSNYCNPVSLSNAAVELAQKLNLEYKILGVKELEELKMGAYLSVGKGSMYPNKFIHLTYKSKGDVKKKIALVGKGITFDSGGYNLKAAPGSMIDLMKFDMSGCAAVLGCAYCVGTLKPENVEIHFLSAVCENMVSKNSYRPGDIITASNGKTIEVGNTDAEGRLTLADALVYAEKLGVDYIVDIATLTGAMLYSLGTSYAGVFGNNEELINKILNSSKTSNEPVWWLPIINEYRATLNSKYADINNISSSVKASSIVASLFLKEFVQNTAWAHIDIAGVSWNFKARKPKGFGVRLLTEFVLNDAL", "experiment": "P. falciparum M17LAP inhibitors, primary screen, biochemical, fluorogenic H-Leu-NHMec substrate, 1536-well (AID 1619)", "type": "functional"}, "BJ [7]": {"test_system": "BJ", "experiment": "cells", "type": "functional, cell-based", "conditions": "Homo sapiens"}, "INS1": {"test_system": "INS1", "experiment": "INS-1E survival protection against cytokine death – cell-based, luminescence, retest, dose response (AID 449756);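 also: cell death triggered by IL-1 beta plus TNF-alpha plus IFN-gamma mixture; protective hits raise ATP signal compared with cytokine alone wells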", "type": "functional", "conditions": "Rattus norvegicus"}, "BJ [8]": {"test_system": "BJ", "experiment": "BJ-TERT fibroblast viability loss – cell-based, RAS-independent, luminescence, dose response (AID 1933)", "type": "functional", "conditions": "Homo sapiens"}, "BJ [9]": {"test_system": "BJ", "experiment": "BJ-TERT-LT-ST fibroblast viability loss – cell-based, RAS-independent, luminescence, dose response (AID 1935);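 also: BJ fibroblasts immortalized with TERT plus LT and ST oncogenes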", "type": "functional", "conditions": "Homo sapiens"}, "[10]": {"experiment": "DRD fibroblast viability loss – cell-based, non-viral oncogenic, luminescence, dose response (AID 1934)", "type": "functional", "conditions": "Homo sapiens"}, "[11]": {"target": "T4, Heat shock factor protein 1 (Mus musculus, UniProt P38532)", "T4 sequence (P38532 whole entry)": "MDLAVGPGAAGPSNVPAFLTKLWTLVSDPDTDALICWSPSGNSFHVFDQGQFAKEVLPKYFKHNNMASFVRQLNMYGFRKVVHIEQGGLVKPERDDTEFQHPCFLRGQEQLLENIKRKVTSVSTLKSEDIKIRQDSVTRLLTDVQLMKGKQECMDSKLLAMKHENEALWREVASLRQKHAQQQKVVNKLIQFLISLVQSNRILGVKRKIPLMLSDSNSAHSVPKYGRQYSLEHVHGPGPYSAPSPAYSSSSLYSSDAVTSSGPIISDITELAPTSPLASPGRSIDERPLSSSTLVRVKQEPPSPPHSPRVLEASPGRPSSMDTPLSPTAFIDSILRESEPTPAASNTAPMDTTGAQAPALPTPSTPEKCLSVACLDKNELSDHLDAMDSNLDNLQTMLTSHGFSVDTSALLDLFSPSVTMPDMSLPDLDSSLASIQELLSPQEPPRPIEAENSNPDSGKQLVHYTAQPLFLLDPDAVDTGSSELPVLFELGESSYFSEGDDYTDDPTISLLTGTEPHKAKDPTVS", "experiment": "decrease of HSF1-responsive luciferase luminescence – cell-based, NIH3T3, dose retest, confirmation (AID 2382);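 also: NIH3T3 fibroblasts with HSF1-driven luciferase reporter stressed by proteasome inhibitor MG132; luminescence from HSF1-driven luciferase expression after 8 hours of MG132 stress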", "type": "functional"}, "Vero": {"test_system": "Vero", "experiment": "cells", "type": "functional", "conditions": "Chlorocebus sabaeus"}, "[12]": {"target": "T5, Rac GTPase-activating protein 1 (Homo sapiens, UniProt Q9H0H5)", "T5 sequence (Q9H0H5 whole entry)": "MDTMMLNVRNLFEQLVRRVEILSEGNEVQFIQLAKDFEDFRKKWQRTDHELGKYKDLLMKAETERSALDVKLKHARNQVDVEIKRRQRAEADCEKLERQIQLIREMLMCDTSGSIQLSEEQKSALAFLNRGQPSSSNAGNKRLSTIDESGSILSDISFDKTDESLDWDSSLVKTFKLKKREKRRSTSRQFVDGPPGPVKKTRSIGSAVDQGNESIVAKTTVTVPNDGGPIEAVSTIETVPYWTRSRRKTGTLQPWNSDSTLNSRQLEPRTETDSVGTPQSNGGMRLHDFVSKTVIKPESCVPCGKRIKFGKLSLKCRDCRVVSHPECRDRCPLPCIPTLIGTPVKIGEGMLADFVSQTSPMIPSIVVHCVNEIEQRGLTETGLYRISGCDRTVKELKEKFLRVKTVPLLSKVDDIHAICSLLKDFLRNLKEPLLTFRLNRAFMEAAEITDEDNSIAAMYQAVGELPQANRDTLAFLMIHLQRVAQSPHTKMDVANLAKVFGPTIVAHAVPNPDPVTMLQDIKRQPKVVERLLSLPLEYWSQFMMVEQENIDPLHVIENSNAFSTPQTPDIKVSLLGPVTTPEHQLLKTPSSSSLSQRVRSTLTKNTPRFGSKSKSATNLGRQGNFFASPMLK", "experiment": "blockers of MgcRacGAP-driven Rac1 GTP hydrolysis – biochemical, ADP Hunter fluorescence, primary and confirmatory, confirmation (AID 624330)", "type": "functional"}}, "note": "Active and inactive are the calls of the source. Rule as the data show it, for most assays here: actives have a measured EC50 and inactives only a lower limit."}
{"compound": "CCOc1cc(/C=C(\\C#N)c2[nH]nc(N)c2C#N)ccc1O", "values": [{"measurement": "EC50", "setting": "[1]", "result": "11.9 µM (active)"}, {"measurement": "CC50", "setting": "[2]", "result": "100 µM (active)"}, {"measurement": "EC50", "setting": "[3]", "result": "> 120 µM (not active)"}, {"measurement": "EC50", "setting": "[4]", "result": "14.6 µM (active)"}]}
{"compound": "O=C(CCc1nc(O)c2ccccc2n1)N1CCN(S(=O)(=O)c2cccc([N+](=O)[O-])c2)CC1", "values": [{"measurement": "IC50", "setting": "H9c2", "result": "> 79 µM (inactive)"}]}
{"compound": "OCCCNc1ncnc2sc3c(c12)CCN(Cc1ccccc1)C3", "values": [{"measurement": "EC50", "setting": "[5]", "result": "24.9 µM (active)"}, {"measurement": "EC50", "setting": "[6]", "result": "> 300 µM (not active)"}]}
{"compound": "O=C(O)c1cccc(-c2ccc(/C=N/NC(=O)C3COc4ccccc4O3)o2)c1", "note": "(stereo not drawn)", "values": [{"measurement": "IC50", "setting": "Leucine aminopeptidase", "result": "45.6 µM (active)"}]}
{"compound": "C/C(=N\\NC(=O)c1ccccc1NC(=O)c1ccc(Cl)cc1)c1ccncc1", "values": [{"measurement": "EC50", "setting": "BJ [7]", "result": "1.21 µM (inconclusive)"}, {"measurement": "AC50", "setting": "INS1", "result": "0.902 µM (active)"}, {"measurement": "EC50", "setting": "BJ [8]", "result": "0.856 µM (inconclusive)"}, {"measurement": "EC50", "setting": "BJ [9]", "result": "2.18 µM (inconclusive)"}, {"measurement": "EC50", "setting": "[10]", "result": "1.12 µM (active)"}]}
{"compound": "CC1=C(C)CC(C(=O)Nc2cccc(Cl)c2)C(C(=O)O)C1", "note": "(stereo not drawn)", "values": [{"measurement": "IC50", "setting": "Leucine aminopeptidase", "result": "2.38 µM (active)"}]}
{"compound": "Cc1cc(C)c(C)c(S(=O)(=O)N2CCN(C(=O)CCc3nc(O)c4ccccc4n3)CC2)c1C", "values": [{"measurement": "IC50", "setting": "H9c2", "result": "> 79 µM (inactive)"}]}
{"compound": "COc1ccc(-c2csc(/C(C#N)=C(\\O)CSc3nccn3C)n2)cc1OC", "values": [{"measurement": "EC50", "setting": "[11]", "result": "> 195 µM (not active)"}, {"measurement": "IC50", "setting": "H9c2", "result": "> 79 µM (inactive)"}]}
{"compound": "CCOc1ccccc1NC(=O)c1oc2ccccc2c1NC(=O)C1CCCO1", "note": "(stereo not drawn)", "values": [{"measurement": "IC50", "setting": "H9c2", "result": "> 79 µM (inactive)"}]}
{"compound": "COc1ccc(-n2cccc2/C=C/[N+](=O)[O-])cc1", "values": [{"measurement": "CC50", "setting": "Vero", "result": "16 µM (active)"}, {"measurement": "IC50", "setting": "[12]", "result": "44 µM (active)"}, {"measurement": "CC50", "setting": "[2]", "result": "42.3 µM (active)"}]}
{"compound": "Cc1n[nH]c(O)c1/C=N/N1CCOCC1", "values": [{"measurement": "EC50", "setting": "[5]", "result": "> 300 µM (not active)"}, {"measurement": "EC50", "setting": "[6]", "result": "> 300 µM (not active)"}]}
{"compound": "C=CCNC(=O)c1ccc(NC(=O)C2=CSCCO2)cc1", "values": [{"measurement": "EC50", "setting": "BJ [7]", "result": "111 µM (active)"}, {"measurement": "EC50", "setting": "BJ [8]", "result": "24.8 µM (active)"}, {"measurement": "EC50", "setting": "BJ [9]", "result": "> 150 µM (not active)"}, {"measurement": "EC50", "setting": "[10]", "result": "60.9 µM (active)"}]}
{"compound": "CCOC(=O)/C(C#N)=C\\C=C1C=CN(C)C=C1", "values": [{"measurement": "IC50", "setting": "Leucine aminopeptidase", "result": "90 µM (active)"}]}
